Experimental data as given in PubChem BioAssay AID248 (DTP/NCI, 2004).
“And” between values parts separate entries of the source, which are not always exact repeats. Equal values may be shown once. Toxic doses and inconclusive results are not listed.

Tested on: L1210 leukemia ip in BDF1 mice, survival T/C
Assay: NCI In Vivo Anticancer Drug Screen. Data for tumor model L1210 Leukemia (intraperitoneal) in B6D2F1 (BDF1) mice
Details: endpoint: mean survival time, higher = longer survival
How it was run: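 Transplanted-tumor mice were given test agent; controls received vehicle only. Survival readings from the two groups were divided (treated over control).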

[1] = dose: 10.0 mg/kg/injection, schedule: Q01DX009 (ip), vehicle: Klucel (hydroxypropylcellulose) (HPC)
[2] = dose: 20.0 mg/kg/injection, schedule: Q04DX003 (ip), vehicle: Klucel (hydroxypropylcellulose) (HPC)
[3] = dose: 100.0 mg/kg/injection, schedule: Q04DX003 (ip), vehicle: saline
[4] = dose: 200.0 mg/kg/injection, schedule: Q04DX003 (ip), vehicle: saline
[5] = dose: 400.0 mg/kg/injection, schedule: Q04DX003 (ip), vehicle: saline
[6] = dose: 100.0 mg/kg/injection, schedule: Q01DX001 (ip), vehicle: saline
[7] = dose: 200.0 mg/kg/injection, schedule: Q01DX001 (ip), vehicle: saline
[8] = dose: 400.0 mg/kg/injection, schedule: Q01DX001 (ip), vehicle: saline
[9] = dose: 50.0 mg/kg/injection, schedule: Q01DX009 (ip), vehicle: saline with Tween-80
[10] = dose: 100.0 mg/kg/injection, schedule: Q01DX009 (ip), vehicle: saline with Tween-80
[11] = dose: 200.0 mg/kg/injection, schedule: Q01DX009 (ip), vehicle: saline with Tween-80
[12] = dose: 100.0 mg/kg/injection, schedule: Q04DX003 (ip), vehicle: saline with Tween-80
[13] = dose: 200.0 mg/kg/injection, schedule: Q04DX003 (ip), vehicle: saline with Tween-80
[14] = dose: 400.0 mg/kg/injection, schedule: Q04DX003 (ip), vehicle: saline with Tween-80

`CC1(C)COC(=S)N1` was tested, and the T/C (dose: 3.13 mg/kg/injection, schedule: Q01DX009 (ip), vehicle: Klucel (hydroxypropylcellulose) (HPC)) was 100 % of control, the T/C (dose: 5.0 mg/kg/injection, schedule: Q01DX009 (ip), vehicle: saline) was 100 % of control and the T/C (dose: 5.0 mg/kg/injection, schedule: Q04DX003 (ip), vehicle: saline) was 98 % of control. For the same compound, the T/C (dose: 6.25 mg/kg/injection, schedule: Q01DX009 (ip), vehicle: Klucel (hydroxypropylcellulose) (HPC)) was 103 % of control, the T/C [1] was 97 % of control and the T/C (dose: 10.0 mg/kg/injection, schedule: Q01DX009 (ip), vehicle: saline) was 100 % of control. The T/C (dose: 10.0 mg/kg/injection, schedule: Q04DX003 (ip), vehicle: saline) was 102 % of control, the T/C (dose: 12.5 mg/kg/injection, schedule: Q01DX009 (ip), vehicle: Klucel (hydroxypropylcellulose) (HPC)) was 97 % of control and 87 % of control and the T/C [2] was 100 % of control. The T/C (dose: 20.0 mg/kg/injection, schedule: Q04DX003 (ip), vehicle: saline) was 101 % of control.

In the case of `COC(=O)C[As+](c1ccccc1)(c1ccccc1)c1ccccc1`, the T/C (dose: 38.0 mg/kg/injection, schedule: Q04DX003 (ip), vehicle: saline) is reported as 91 % of control, the T/C (dose: 75.0 mg/kg/injection, schedule: Q04DX003 (ip), vehicle: saline) is reported as 100 % of control and the T/C (dose: 150.0 mg/kg/injection, schedule: Q04DX003 (ip), vehicle: saline) is reported as 96 % of control.

`C[C@]12CCC(=O)C[C@H]1CC[C@@H]1[C@@H]2CC[C@@]2(C)[C@H]1CC[C@]2(C)O` was tested, and the T/C (dose: 50.0 mg/kg/injection, schedule: Q01DX Z (sc), vehicle: steriod suspending solution) was 98 % of control, the T/C (dose: 100.0 mg/kg/injection, schedule: Q01DX Z (sc), vehicle: steriod suspending solution) was 98 % of control and the T/C (dose: 200.0 mg/kg/injection, schedule: Q01DX Z (sc), vehicle: steriod suspending solution) was 101 % of control. For the same compound, the T/C (dose: 400.0 mg/kg/injection, schedule: Q01DX Z (sc), vehicle: steriod suspending solution) was 98 % of control.

`O=[N+]([O-])c1ccc(C2N=NCCS2)cc1` (centres undefined) was tested, and the T/C (dose: 100.0 mg/kg/injection, schedule: Q01DX001 (ip), vehicle: Klucel (hydroxypropylcellulose) (HPC)) was 98 % of control, the T/C (dose: 200.0 mg/kg/injection, schedule: Q01DX001 (ip), vehicle: Klucel (hydroxypropylcellulose) (HPC)) was 104 % of control and the T/C (dose: 400.0 mg/kg/injection, schedule: Q01DX001 (ip), vehicle: Klucel (hydroxypropylcellulose) (HPC)) was 95 % of control.

For `CCCCC(CCCC(=O)O)C(=O)O` (centres undefined), the T/C (dose: 100.0 mg/kg/injection, schedule: Q01DX001 (ip), vehicle: carboxymethylcellulose (CMC)) was 93 % of control, the T/C (dose: 200.0 mg/kg/injection, schedule: Q01DX001 (ip), vehicle: carboxymethylcellulose (CMC)) was 96 % of control and the T/C (dose: 400.0 mg/kg/injection, schedule: Q01DX001 (ip), vehicle: carboxymethylcellulose (CMC)) was 98 % of control.

In the case of `CCCCCCCCCCCCCNCCCCCCCCCCCCC`, the T/C [3] is reported as 96 % of control, the T/C [4] is reported as 92 % of control and the T/C [5] is reported as 96 % of control.

For `COC1(OC)C2(Cl)CC(=O)C3CC(=O)C3C1(Cl)C(Cl)=C2Cl` (centres undefined), the T/C (dose: 50.0 mg/kg/injection, schedule: Q01DX009 (ip), vehicle: Klucel (hydroxypropylcellulose) (HPC)) was 92 % of control, the T/C [6] was 100 % of control and the T/C (dose: 100.0 mg/kg/injection, schedule: Q01DX009 (ip), vehicle: Klucel (hydroxypropylcellulose) (HPC)) was 94 % of control. The T/C [7] was 94 % of control, the T/C (dose: 200.0 mg/kg/injection, schedule: Q01DX009 (ip), vehicle: Klucel (hydroxypropylcellulose) (HPC)) was 102 % of control and the T/C [8] was 101 % of control.

For `Cc1cccc(C(C#N)(CCC#N)N2CCOCC2)n1` (centres undefined), the T/C [9] was 91 % of control, the T/C [10] was 98 % of control and the T/C [11] was 94 % of control.

`c1ccc2c(c1)C1=NCCN1c1ccccc1-2` was tested, and the T/C [1] was 101 % of control, the T/C (dose: 10.0 mg/kg/injection, schedule: Q04DX003 (ip), vehicle: Klucel (hydroxypropylcellulose) (HPC)) was 114 % of control and the T/C (dose: 20.0 mg/kg/injection, schedule: Q01DX009 (ip), vehicle: Klucel (hydroxypropylcellulose) (HPC)) was 111 % of control. The T/C [2] was 122 % of control, the T/C (dose: 40.0 mg/kg/injection, schedule: Q01DX009 (ip), vehicle: Klucel (hydroxypropylcellulose) (HPC)) was 105 % of control and the T/C (dose: 40.0 mg/kg/injection, schedule: Q04DX003 (ip), vehicle: Klucel (hydroxypropylcellulose) (HPC)) was 112 % of control.

With `Cc1ccc(C(CS(=O)(=O)c2ccc(C)cc2)c2ccccc2)cc1` (centres undefined) the T/C [6] was 92 % of control, the T/C [7] was 103 % of control and the T/C [8] was 94 % of control.

`CCCCCCCCCCCCCC(=O)OC1C(CO)OC2C1Oc1nc(=N)ccn12` (centres undefined) was tested, and the T/C (dose: 25.0 mg/kg/injection, schedule: Q01DX009 (ip), vehicle: other) was 152 % of control, the T/C (dose: 50.0 mg/kg/injection, schedule: Q01DX009 (ip), vehicle: other) was 171 % of control and the T/C (dose: 100.0 mg/kg/injection, schedule: Q01DX009 (ip), vehicle: other) was 214 % of control. For the same compound, the T/C (dose: 200.0 mg/kg/injection, schedule: Q01DX009 (ip), vehicle: other) was 179 % of control.

In the case of `O=C(O)Cc1ccc(Cl)c2ccccc12`, the T/C (dose: 100.0 mg/kg/injection, schedule: Q04DX002 (ip), vehicle: Klucel (hydroxypropylcellulose) (HPC)) is reported as 101 % of control, the T/C (dose: 200.0 mg/kg/injection, schedule: Q04DX002 (ip), vehicle: Klucel (hydroxypropylcellulose) (HPC)) is reported as 104 % of control and the T/C (dose: 400.0 mg/kg/injection, schedule: Q04DX002 (ip), vehicle: Klucel (hydroxypropylcellulose) (HPC)) is reported as 107 % of control.

With `Cc1cc(=O)[nH]c2ccc(Cc3ccc(Cl)cc3)cc12` the T/C [6] was 97 % of control, the T/C [7] was 98 % of control and the T/C [8] was 95 % of control.

`O=C(SCCN1CCCC1)C(O)(c1ccccc1)C1CCCC1` (centres undefined) was tested, and the T/C (dose: 75.0 mg/kg/injection, schedule: Q01DX001 (ip), vehicle: carboxymethylcellulose (CMC)) was 92 % of control, the T/C (dose: 150.0 mg/kg/injection, schedule: Q01DX001 (ip), vehicle: carboxymethylcellulose (CMC)) was 96 % of control and the T/C (dose: 300.0 mg/kg/injection, schedule: Q01DX001 (ip), vehicle: carboxymethylcellulose (CMC)) was 96 % of control.

`NC(=O)c1cc(O)c(O)c(O)c1` was tested, and the T/C [6] was 102 % of control, the T/C [7] was 102 % of control and the T/C [8] was 102 % of control.

`CC(C)OCc1c(N)nc(=S)[nH]c1C(=O)O` was tested, and the T/C (dose: 12.0 mg/kg/injection, schedule: Q01DX009 (ip), vehicle: saline) was 90 % of control, the T/C (dose: 25.0 mg/kg/injection, schedule: Q01DX009 (ip), vehicle: saline) was 97 % of control and the T/C (dose: 25.0 mg/kg/injection, schedule: Q04DX003 (ip), vehicle: saline) was 106 % of control. For the same compound, the T/C (dose: 50.0 mg/kg/injection, schedule: Q01DX009 (ip), vehicle: saline) was 103 % of control and 92 % of control, the T/C (dose: 50.0 mg/kg/injection, schedule: Q04DX003 (ip), vehicle: saline) was 97 % of control and the T/C [3] was 102 % of control and 90 % of control.

In the case of `COc1ccc(/C=C(C)/C=N/NC(=O)c2ccncc2)cc1OC`, the T/C [12] is reported as 98 % of control, the T/C [13] is reported as 97 % of control and the T/C [14] is reported as 103 % of control.

For `O=C(/C=C/c1ccc(Cl)cc1Cl)c1ccc(Cl)cc1`, the T/C [10] was 105 % of control, the T/C [12] was 95 % of control and the T/C [11] was 90 % of control. For the same compound, the T/C [13] was 93 % of control, the T/C (dose: 400.0 mg/kg/injection, schedule: Q01DX009 (ip), vehicle: saline with Tween-80) was 90 % of control and the T/C [14] was 88 % of control.

In the case of `NCC1OC(OC2C(N)CC(N)C(O)C2OC2OC(CO)C(O)C2O)C(N)C(O)C1O` (centres undefined), the T/C (dose: 75.0 mg/kg/injection, schedule: Q01DX001 (ip), vehicle: saline) is reported as 92 % of control, the T/C (dose: 75.0 mg/kg/injection, schedule: Q01DX009 (ip), vehicle: saline) is reported as 98 % of control and the T/C [6] is reported as 100 % of control. The T/C [3] was 100 % of control, the T/C (dose: 150.0 mg/kg/injection, schedule: Q01DX001 (ip), vehicle: saline) was 97 % of control and the T/C (dose: 150.0 mg/kg/injection, schedule: Q01DX009 (ip), vehicle: saline) was 96 % of control. For the same compound, the T/C [7] was 100 % of control, the T/C [4] was 95 % of control and the T/C (dose: 300.0 mg/kg/injection, schedule: Q01DX001 (ip), vehicle: saline) was 93 % of control. For the same compound, the T/C (dose: 300.0 mg/kg/injection, schedule: Q01DX009 (ip), vehicle: saline) was 98 % of control, the T/C [8] was 100 % of control and the T/C [5] was 95 % of control.

In the case of `O=C(OCc1ccccc1)C1CCCN1Cc1ccc2c(c1)OCO2` (centres undefined), the T/C [6] is reported as 93 % of control and the T/C [8] is reported as 96 % of control.

`CCCCC(CC)COc1ccc(N=C(N)N=C(N)N)cc1` (centres undefined) was tested, and the T/C (dose: 100.0 mg/kg/injection, schedule: Q04DX002 (ip), vehicle: saline with Tween-80) was 105 % of control.

`Nc1nc(N)nc(-c2ccncc2)n1` was tested, and the T/C [9] was 119 % of control.

For `CCC1NC(C(=O)O)CS1` (centres undefined), the T/C [6] was 96 % of control, the T/C [7] was 100 % of control and the T/C [8] was 89 % of control.
